Assay results as given in ChEMBL document CHEMBL1137157, “Synthesis and biological activity of 2-anilino-4-(1H-pyrrol-3-yl) pyrimidine CDK inhibitors” (Bioorg Med Chem Lett, 2004).

How the values were obtained:
Cell line = assay: inhibitory concentration for anti-proliferative activity against A549 and […] human tumor cell lines was determined; format: functional, cell-based
[1] = target: Cyclin-dependent kinase 2 (Homo sapiens, UniProt P24941); assay: Inhibition of Cyclin dependent kinase 2
[2] = target: Cyclin-dependent kinase 4 (Homo sapiens, UniProt P11802); assay: Inhibition of Cyclin dependent kinase 4
Sequence of Cyclin-dependent kinase 4 (P11802 whole entry): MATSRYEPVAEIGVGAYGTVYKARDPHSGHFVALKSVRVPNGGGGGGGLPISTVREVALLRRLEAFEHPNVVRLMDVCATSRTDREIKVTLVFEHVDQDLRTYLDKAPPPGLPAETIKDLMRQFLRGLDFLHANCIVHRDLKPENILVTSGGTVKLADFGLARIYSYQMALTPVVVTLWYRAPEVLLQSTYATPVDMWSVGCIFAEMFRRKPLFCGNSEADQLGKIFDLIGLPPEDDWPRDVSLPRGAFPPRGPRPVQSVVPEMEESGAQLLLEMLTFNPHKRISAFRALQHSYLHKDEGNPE

SMILES: Cc1ccc(Nc2nccc(-c3c(C)[nH]c(C#N)c3C)n2)cc1[N+](=O)[O-]
- IC50 (Cell line): 380 nM

SMILES: Cc1[nH]c(C#N)c(C)c1-c1ccnc(Nc2ccc(O)cc2)n1
- IC50 (Cell line): 1360 nM

SMILES: Cc1[nH]c(Br)c(C)c1-c1ccnc(Nc2ccc(F)cc2)n1
- IC50 (Cell line): 16000 nM
- Ki [1]: 270 nM

SMILES: Cc1cc(Nc2nccc(-c3c(C)[nH]c(C#N)c3C)n2)ccc1F
- IC50 (Cell line): 890 nM
- Ki [2]: 300 nM

SMILES: Cc1[nH]c(C#N)c(C)c1-c1ccnc(Nc2ccc(F)cc2)n1
- IC50 (Cell line): 2440 nM
- Ki [1]: 100 nM

SMILES: Cc1[nH]c(C#N)c(C)c1-c1ccnc(Nc2cccc([N+](=O)[O-])c2)n1
- IC50 (Cell line): 360 nM

SMILES: Cc1ccc(Nc2nccc(-c3c(C)[nH]c(C#N)c3C)n2)cc1O
- IC50 (Cell line): 1170 nM

SMILES: Cc1[nH]c(C#N)c(C)c1-c1ccnc(Nc2cccc(O)c2)n1
- IC50 (Cell line): 1840 nM
- Ki [1]: 30 nM

SMILES: Cc1[nH]c(C(N)=O)c(C)c1-c1ccnc(Nc2ccc(F)cc2)n1
- IC50 (Cell line): 1640 nM
- Ki [2]: 420 nM

SMILES: Cc1c[nH]c(C)c1-c1ccnc(Nc2cccc([N+](=O)[O-])c2)n1
- Ki [2]: 4170 nM

SMILES: Cc1[nH]c([N+](=O)[O-])c(C)c1-c1ccnc(Nc2ccc(F)cc2)n1
- IC50 (Cell line): 3120 nM
- Ki [2]: 120 nM

SMILES: Cc1[nH]c(Cl)c(C)c1-c1ccnc(Nc2ccc(F)cc2)n1
- IC50 (Cell line): 13000 nM
- Ki [1]: 360 nM
